Patent publication US20110091485A1, “MODULATION OF CELL JUNCTIONS” (priority 2007, published 2011)
Where a SMILES comes first, the peptide text is derived from it. [ ]: non-standard residue; d: D form. Nle = CCCC[C@H](N)C(=O)O

What was measured:
SFKs = experiment: SFK inhibition with PP2 in keratinocytes (Cx43 immunofluorescence, scratch wound); type: cell-based
Experimental: FIG. 13. […] Keratinocytes were pretreated with PP2 (5 μM, 2 h), scratch wounded and after 12 h were fixed in cold methoano/acetone and processed for immunofluorescence for total Cx43 (green). Cell nuclei were stained with DAPI (blue) and the scratched area is shown by an arrow.

GJC = settings: cited from earlier work
Gp140 [1] = target: T1, Gp140 (Homo sapiens, UniProt Q9H5V8); type: cell-based; settings: keratinocytes, P1C3 15 min, suramin 35 μM
T1 construct: endogenous in cells; host or cells: human keratinocytes (HKs)
T1 sequence (Q9H5V8 30-836): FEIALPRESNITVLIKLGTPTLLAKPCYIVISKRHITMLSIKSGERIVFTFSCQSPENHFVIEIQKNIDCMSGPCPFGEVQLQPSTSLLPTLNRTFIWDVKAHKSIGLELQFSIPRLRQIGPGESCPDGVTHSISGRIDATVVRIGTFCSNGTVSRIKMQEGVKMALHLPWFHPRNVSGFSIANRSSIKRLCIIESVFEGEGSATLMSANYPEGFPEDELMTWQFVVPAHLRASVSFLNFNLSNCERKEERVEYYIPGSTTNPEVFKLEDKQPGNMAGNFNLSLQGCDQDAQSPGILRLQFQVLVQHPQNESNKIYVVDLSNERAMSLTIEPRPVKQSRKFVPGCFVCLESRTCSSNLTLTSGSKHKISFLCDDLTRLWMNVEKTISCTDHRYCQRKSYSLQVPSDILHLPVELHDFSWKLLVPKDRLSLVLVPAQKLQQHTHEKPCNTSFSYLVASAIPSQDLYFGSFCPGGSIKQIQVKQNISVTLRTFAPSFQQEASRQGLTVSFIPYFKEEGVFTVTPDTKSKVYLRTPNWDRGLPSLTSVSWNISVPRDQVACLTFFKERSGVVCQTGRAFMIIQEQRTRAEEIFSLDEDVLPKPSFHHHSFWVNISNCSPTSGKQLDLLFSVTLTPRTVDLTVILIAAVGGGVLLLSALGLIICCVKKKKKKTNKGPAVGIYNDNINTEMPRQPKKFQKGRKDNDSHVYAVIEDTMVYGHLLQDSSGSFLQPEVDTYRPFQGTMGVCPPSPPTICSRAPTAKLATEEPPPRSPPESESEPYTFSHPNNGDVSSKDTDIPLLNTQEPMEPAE
Experimental: Zymosan or ActGp140 mAb were added to keratinocytes and incubated (30 min), washed, fixed (2% formaldehyde in cacodylate, 10 min) and permeabilized (0.5% Triton-X100, 5 min).
Human keratinocytes were grown in 30 μM Ca^+2 then treated with zymosan (20 μg/10^6 cells) for 30 min or 2 h, extracted with Triton X-100 (0.5% for 5 min) and fixed and stained with Abs against ZO-1 and afadin (AF-6).
Keratinocytes were treated (2 h) with ActGp140 mAb, washed, extracted with Triton X-100 detergent (0.5%, 5 min, 4° C.), fixed and stained with Abs against the indicated proteins.
Keratinocytes (grown in 30 μM Ca^+2) were untreated or treated with ActGp140 or NActGp140 mAbs for 1.5 hrs, washed, extracted with Triton X-100 (0.5% at 4° C. for 5 min) then stained.
(b-c) anti-Gp140 mAb (P1C3). (d) Same field as c stained with Abs against Gp140pY734.

Gp140 [2] = target: T1, Gp140; experiment: Phosphorylation of Gp140, SFK and PKCδ in keratinocytes (immunoblotting); type: cell-based; settings: 5 min
Gp140 [3] = target: T1, Gp140; experiment: α-catenin localization in cell-cell contacts of keratinocytes grown in low Ca+2; type: cell-based; settings: 30 μM Ca+2, suramin 35 μM, 3 hrs
Experimental: FIG. 25. Signals through Gp140/CDCP1 promote α-catenin in cell-cell contacts. Human keratinocytes were grown in low Ca^+2 (30 μM) in order to disassemble adherens junctions that contain cadherins and α-catenin. The keratinocytes were treated without (−Left panel) or with (+Right Panel) Gp140 siRNA to knockdown expression of Gp140. […] Arrows indicate minor subpopulation of cells where Gp140 was not knocked down surrounded by the majority of Gp140 was knocked down.
Signals through Gp140/CDCP1 promote α-catenin in cell-cell contacts. Human keratinocytes were grown in low Ca^+2 (30 μM) in order to disassemble adherens junctions that contain cadherins and α-catenin. The keratinocytes were treated without or with Gp140 siRNA to knockdown expression of Gp140. […] Arrows indicate minor subpopulation of cells where Gp140 was not knocked down surrounded by the majority of Gp140 was knocked down.

Gp140 [4] = target: T2, Gp140 (Mus musculus, UniProt Q5U462); settings: cited from earlier work
T2 construct: from tissue; host or cells: mouse epidermis
T2 sequence (Q5U462 30-833): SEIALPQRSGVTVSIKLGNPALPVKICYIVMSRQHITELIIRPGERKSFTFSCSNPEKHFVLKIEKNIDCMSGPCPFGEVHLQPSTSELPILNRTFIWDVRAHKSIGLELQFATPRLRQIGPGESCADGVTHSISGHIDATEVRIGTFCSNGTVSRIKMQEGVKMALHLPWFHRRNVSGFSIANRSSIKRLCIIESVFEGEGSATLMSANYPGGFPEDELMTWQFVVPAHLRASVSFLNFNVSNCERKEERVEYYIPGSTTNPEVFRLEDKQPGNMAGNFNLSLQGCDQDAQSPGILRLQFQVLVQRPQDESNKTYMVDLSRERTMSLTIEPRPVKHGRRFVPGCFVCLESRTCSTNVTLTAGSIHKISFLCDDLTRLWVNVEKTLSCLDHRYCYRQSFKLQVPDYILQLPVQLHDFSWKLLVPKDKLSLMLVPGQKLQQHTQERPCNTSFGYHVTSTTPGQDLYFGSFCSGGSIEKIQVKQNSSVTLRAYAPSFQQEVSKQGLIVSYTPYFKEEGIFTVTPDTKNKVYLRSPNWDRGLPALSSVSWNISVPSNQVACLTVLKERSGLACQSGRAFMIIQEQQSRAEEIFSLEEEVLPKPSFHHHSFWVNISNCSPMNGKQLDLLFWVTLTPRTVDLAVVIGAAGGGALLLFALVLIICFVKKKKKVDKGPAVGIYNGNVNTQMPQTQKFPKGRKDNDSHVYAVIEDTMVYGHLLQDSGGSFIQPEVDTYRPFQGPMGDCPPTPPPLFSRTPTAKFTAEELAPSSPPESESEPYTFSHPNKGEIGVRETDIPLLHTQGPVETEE

Cx43 = Cx43 levels and Y247 phosphorylation in LA25 cells treated with ALLN (immunoblot); type: cell-based; settings: LA25 cells at 35° C. (src active), ALLN 3 h
Experimental: FIG. 16. (A) Src activity leads to reduced levels of Cx43 in gap junctions unless rescued by ALLN treatment. LA25 cells grown at 40° C. or 35° C. (permissive) were untreated or treated with ALLN for 3 h and total Cx43 levels were determined by immunoblot. […] Cells grown at 35° C. were treated with ALLN for 3 h or untreated and pY247 and pY265 levels relative to total Cx43 were determined. In both A & B total cell lysates were harvested, blotted and probed (n=4 separate expts).

CC(C)(C)n1nc(-c2ccc(Cl)cc2)c2c(N)ncnc21 [PP2]
gap junctional density at wound cell-cell interfaces (total Cx43) (SFKs; PP2 5 μM, 2 h pretreatment, scratch wound, 12 h): increases gap junctional density at wound cell-cell interfaces
cell surface Gp140, junctional Cx43 and dye transfer (SFKs; keratinocytes): dramatic increases in cell surface Gp140 and junctional Cx43 and dye transfer

CC1(C)[C@@H](OC(=O)CCC(=O)O)CC[C@]2(C)[C@H]3C(=O)C=C4[C@@H]5C[C@@](C)(C(=O)O)CC[C@]5(C)CC[C@@]4(C)[C@]3(C)CC[C@@H]12 [CBX, 18α-carbenoxalone]
wound outgrowth (GJC): prevents wound outgrowth when applied before, but not after wounding

Cc1ccc(C(=O)Nc2ccc(S(=O)(=O)O)c3cc(S(=O)(=O)O)cc(S(=O)(=O)O)c23)cc1NC(=O)c1cccc(NC(=O)Nc2cccc(C(=O)Nc3cc(C(=O)Nc4ccc(S(=O)(=O)O)c5cc(S(=O)(=O)O)cc(S(=O)(=O)O)c45)ccc3C)c2)c1 [suramin]
phosphorylation and assembly of Gp140 in detergent-resistant membrane clusters in cell-cell contacts (Gp140 [1]): increases phosphorylation and assembly of Gp140 in detergent-resistant Gp140 membrane clusters
PKC activity determined by phosphorylation of VaspS157 (Gp140 [2]): increased
phosphorylation of Gp140Y734, SFKY416 and PKCdY311 by SFKs (Gp140 [2]; suramin 35 μM): increased phosphorylation
α-catenin in cell-cell contacts (Gp140 [3]): dramatic accumulation of α-catenin in cell-cell contacts
phosphorylation and cleavage of Gp140 in mouse epidermis (Gp140 [4]): induces phosphorylation and proteolytic cleavage of Gp140 to p80

CCCC[C@@H](C=O)NC(=O)[C@H](CC(C)C)NC(=O)[C@H](CC(C)C)NC(C)=O [ALLN] (Ac-Leu-Leu-[Nle]-aldehyde)
Y247 phosphorylation relative to total Cx43 (Cx43): increases the levels of Y247 phosphorylation relative to total Cx43
